Here are results for nine molecules from patent US8383581B2, “Short-chain peptides as parathyroid hormone (PTH) receptor agonist” (Cadila Healthcare Limited, priority 2009, dated 2013).

What all share (type): in vitro ADME
Data set [1] in a line: Stability of peptides in human plasma. Particulars: human, plasma; for metabolised at 24 h, 2 μM: pH 7.8. The procedure, abridged: (§1)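 Peptides at 2 μM final incubated 0–24 h at 37 °C (50 mM triethanolamine-HCl, pH 7.8) in each matrix, matrix level set to degrade ~50% PTH(1-34) in 1 h; TFA-quenched, C18 HPLC at 206 nm with ESI-MS peak identification; percent degradation from peak areas at each time point.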

Data set [2] can be described thus: Stability of peptides in simulated gastric fluid (pH 1.5; HCl, NaCl and Pepsin). As to conditions: pH 1.5; for % degradation of peptides in 24 h when incubated with simulated gastric fluid: 2 μM; for half-life: simulated gi fluid.
Data set [3] can be described thus: Stability of peptides in simulated intestinal fluid (pH 7.5). Particulars: pH 7.5; for half-life: simulated gi fluid; for % degradation of peptides in 24 h when incubated with simulated intestinal fluid: 2 μM. The essentials:
as §1

Data set [4] is described as follows: Stability of peptides in human liver microsomes. Particulars: human, microsomes; for % degradation of peptides in 24 h when incubated with liver microsomes: 2 μM, pH 7.8. The procedure, abridged: as §1

Structures are written as SMILES. Where a SMILES comes first, the peptide text is derived from it. [ ]: non-standard residue; d: D form. ξ: configuration not given here. ξBip(2'-Et-4'-OMe) = CCc1cc(OC)ccc1-c1ccc(CC(N)C(=O)O)cc1; Arg(NO2) = N=C(NCCC[C@H](N)C(=O)O)N[N+](=O)[O-]; αMePhe(2,6-F2) = C[C@](N)(Cc1c(F)cccc1F)C(=O)O; ξαMePhe(2,6-F2) = CC(N)(Cc1c(F)cccc1F)C(=O)O; ξαMe(hhPhe) = CC(N)(CCCc1ccccc1)C(=O)O; ξαMePhe(2-F) = CC(N)(Cc1ccccc1F)C(=O)O; hhPhe = N[C@@H](CCCc1ccccc1)C(=O)O; hArg = N=C(N)NCCCC[C@H](N)C(=O)O; Cit = NC(=O)NCCC[C@H](N)C(=O)O; ξαMeF = CC(N)(Cc1ccccc1)C(=O)O; ξαMeV = CC(C)C(C)(N)C(=O)O; Nle = CCCC[C@H](N)C(=O)O; Orn = NCCC[C@H](N)C(=O)O; ξαMeP = CC1(C(=O)O)CCCN1; Ac5c = NC1(C(=O)O)CCCC1; Ac3c = NC1(C(=O)O)CC1; Aib = CC(C)(N)C(=O)O

For orientation: half-life means the time in which the quantity being followed falls by half. For `CCCC[C@H](NC(=O)[C@H](CC(C)C)NC(=O)[C@H](CCC(N)=O)NC(=O)[C@@H](NC(=O)[C@H](CCC(=O)O)NC(=O)C(C)(C)NC(=O)[C@@H](NC(=O)C1(NC(=O)C(C)(N)C(C)C)CCCC1)C(C)C)[C@@H](C)CC)C(=O)N[C@@H](Cc1c[nH]cn1)C(=O)N[C@@H](CCC(N)=O)C(=O)N[C@@H](CCCCNC(=N)N)C(=O)N[C@@H](C)C(=O)N[C@@H](CCCCN)C(=O)NC(Cc1ccc(-c2ccc(OC)cc2CC)cc1)C(=O)NC(C)(CCCc1ccccc1)C(N)=O` (stereo partly drawn) [Seq. ID. 895] (H-[ξαMeV][Ac5c]V[Aib]EIQL[Nle]HQ[hArg]AK[ξBip(2'-Et-4'-OMe)][ξαMe(hhPhe)]-NH2), in data set [1], the half-life is more than 1440 min and the metabolised at 24 h, 2 μM came to 0%. In data set [2], the “% degradation of peptides in 24 h when incubated with simulated gastric fluid” value (“% degradation … with simulated gastric fluid” for short) is recorded as 00% and the half-life is more than 1440 min. Further, in data set [3], the half-life is more than 1440 min and the “% degradation of peptides in 24 h when incubated with simulated intestinal fluid” value (shortened to “% degradation … with simulated intestinal fluid”) is recorded as 00%. Further, in data set [4], the “half-life (t1/2) in liver microsomes” value is “(5) h” and the “% degradation of peptides in 24 h when incubated with liver microsomes” value (shortened to “% degradation … with liver microsomes”) was 33%.

Regarding `CCCC[C@H](NC(=O)C(C)(Cc1ccccc1F)NC(=O)[C@H](CCC(N)=O)NC(=O)[C@@H](NC(=O)[C@H](CCC(=O)O)NC(=O)C(C)(C)NC(=O)[C@@H](NC(=O)C1(N)CC1)C(C)C)[C@@H](C)CC)C(=O)N[C@@H](Cc1c[nH]cn1)C(=O)N[C@@H](CCC(N)=O)C(=O)N[C@@H](CCCCNC(=N)N)C(=O)NC(C)(C)C(=O)N[C@@H](CCCCN)C(=O)NC(C)(Cc1c(F)cccc1F)C(N)=O` (stereo partly drawn) [Seq. ID. 95] (H-[Ac3c]V[Aib]EIQ[ξαMePhe(2-F)][Nle]HQ[hArg][Aib]K[ξαMePhe(2,6-F2)]-NH2), in data set [1], the “half-life (t1/2) in human plasma” value is “(9) h” and the metabolised at 24 h, 2 μM was determined as 80%. For the same molecule, in data set [2], the “% degradation … with simulated gastric fluid” value is reported as 100% and the half-life was 30 min. For the same molecule, in data set [3], the half-life was 30 min and the “% degradation … with simulated intestinal fluid” value was 100%. Also, in data set [4], the half-life was 30 min and the “% degradation … with liver microsomes” value came out at 100%.

`CCCC[C@H](NC(=O)[C@H](CC(C)C)NC(=O)[C@H](CCC(N)=O)NC(=O)[C@@H](NC(=O)[C@H](CCC(=O)O)NC(=O)C(C)(C)NC(=O)[C@@H](NC(=O)C(C)(C)N)C(C)C)[C@@H](C)CC)C(=O)N[C@@H](Cc1c[nH]cn1)C(=O)N[C@@H](CCC(N)=O)C(=O)N[C@@H](CCCCNC(=N)N)C(=O)NC(C)(C)C(=O)N[C@@H](CCCCN)C(=O)NC(C)(Cc1ccccc1)C(N)=O` (stereo partly drawn) [Seq. ID. 10] (H-[Aib]V[Aib]EIQL[Nle]HQ[hArg][Aib]K[ξαMeF]-NH2): in data set [1], the “half-life (t1/2) in human plasma” value is recorded as “(9) h” and the metabolised at 24 h, 2 μM stood at 70%. For the same molecule, in data set [2], the “% degradation … with simulated gastric fluid” value was 100% and the half-life is 30 min. In addition, in data set [3], the half-life was 30 min and the “% degradation … with simulated intestinal fluid” value was 100%. In data set [4], the half-life was found to be 30 min and the “% degradation … with liver microsomes” value is 100%.

Consider `CCCC[C@H](NC(=O)C(C)(Cc1ccccc1F)NC(=O)[C@H](CCC(N)=O)NC(=O)[C@@H](NC(=O)[C@H](CCC(=O)O)NC(=O)C(C)(C)NC(=O)[C@@H](NC(=O)C1(N)CCCC1)C(C)C)[C@@H](C)CC)C(=O)N[C@@H](Cc1c[nH]cn1)C(=O)N[C@@H](CCC(N)=O)C(=O)N[C@@H](CCCCNC(=N)N)C(=O)NC(C)(C)C(=O)N[C@@H](CCCNC(=N)N[N+](=O)[O-])C(=O)NC(C)(Cc1c(F)cccc1F)C(N)=O` (stereo partly drawn) [Seq. ID. 270] (H-[Ac5c]V[Aib]EIQ[ξαMePhe(2-F)][Nle]HQ[hArg][Aib][Arg(NO2)][ξαMePhe(2,6-F2)]-NH2), for which, in data set [1], the “half-life (t1/2) in human plasma” value is on record as “(9) h” and the metabolised at 24 h, 2 μM was determined as 78%. Besides, in data set [2], the “% degradation … with simulated gastric fluid” value is recorded as 100% and the half-life was 30 min. For the same molecule, in data set [3], the half-life is 30 min and the “% degradation … with simulated intestinal fluid” value was 100%. In addition, in data set [4], the half-life was determined as 30 min and the “% degradation … with liver microsomes” value was 100%.

In data set [1], `CCCC[C@H](NC(=O)[C@](C)(Cc1c(F)cccc1F)NC(=O)[C@H](CCC(N)=O)NC(=O)[C@@H](NC(=O)[C@H](CCC(=O)O)NC(=O)C(C)(C)NC(=O)[C@@H](NC(=O)C(C)(C)N)C(C)C)[C@@H](C)CC)C(=O)N[C@@H](Cc1c[nH]cn1)C(=O)N[C@@H](CCC(N)=O)C(=O)N[C@@H](CCCNC(N)=O)C(=O)NC(C)(C)C(=O)N[C@@](C)(Cc1c(F)cccc1F)C(=O)N[C@@](C)(Cc1c(F)cccc1F)C(N)=O` [Seq. ID. 390] (H-[Aib]V[Aib]EIQ[αMePhe(2,6-F2)][Nle]HQ[Cit][Aib][αMePhe(2,6-F2)][αMePhe(2,6-F2)]-NH2) registered a half-life of more than 1440 min and a metabolised at 24 h, 2 μM of 0%. For the same molecule, in data set [2], the “% degradation … with simulated gastric fluid” value is listed as 55% and the half-life was 240 min. In addition, in data set [3], the half-life is more than 1440 min and the “% degradation … with simulated intestinal fluid” value is on record as 00%. In data set [4], the half-life is 120 min and the “% degradation … with liver microsomes” value came out at 84%.

As to `CCCC[C@H](NC(=O)C(C)(Cc1c(F)cccc1F)NC(=O)[C@H](CCC(N)=O)NC(=O)[C@@H](NC(=O)[C@H](CCC(=O)O)NC(=O)C(C)(C)NC(=O)[C@@H](NC(=O)C1(N)CC1)C(C)C)[C@@H](C)CC)C(=O)N[C@@H](Cc1c[nH]cn1)C(=O)N[C@@H](CCC(N)=O)C(=O)N[C@@H](CCCCNC(=N)N)C(=O)N1CCCC1(C)C(=O)N[C@@H](CCCCN)C(=O)NC(C)(Cc1ccccc1F)C(N)=O` (stereo partly drawn) [Seq. ID. 75] (H-[Ac3c]V[Aib]EIQ[ξαMePhe(2,6-F2)][Nle]HQ[hArg][ξαMeP]K[ξαMePhe(2-F)]-NH2), in data set [1], the “half-life (t1/2) in human plasma” value is “(9) h” and the metabolised at 24 h, 2 μM came out at 78%. Further, in data set [2], the “% degradation … with simulated gastric fluid” value is 100% and the half-life is 30 min. In data set [3], the half-life is 30 min and the “% degradation … with simulated intestinal fluid” value is 100%. Moreover, in data set [4], the half-life came out at 30 min and the “% degradation … with liver microsomes” value is reported as 100%.

In data set [1], `CCCC[C@H](NC(=O)[C@H](CC(C)C)NC(=O)[C@H](CCC(N)=O)NC(=O)[C@@H](NC(=O)[C@H](CCC(=O)O)NC(=O)C(C)(C)NC(=O)[C@@H](NC(=O)C(C)(C)N)C(C)C)[C@@H](C)CC)C(=O)N[C@@H](Cc1c[nH]cn1)C(=O)N[C@@H](CCC(N)=O)C(=O)N[C@@H](CCCCNC(=N)N)C(=O)N[C@@H](C)C(=O)N[C@@H](CCCNC(=N)N)C(=O)NC(Cc1ccc(-c2ccc(OC)cc2CC)cc1)C(=O)N[C@@H](CCCc1ccccc1)C(N)=O` (stereo partly drawn) [Seq. ID. 730] (H-[Aib]V[Aib]EIQL[Nle]HQ[hArg]AR[ξBip(2'-Et-4'-OMe)][hhPhe]-NH2) yielded a half-life of more than 1320 min and a metabolised at 24 h, 2 μM of 5%. In data set [2], the “% degradation … with simulated gastric fluid” value was 55% and the half-life was 240 min. In data set [3], the half-life is more than 1440 min and the “% degradation … with simulated intestinal fluid” value is on record as 00%. In addition, in data set [4], the half-life is 120 min and the “% degradation … with liver microsomes” value was found to be 84%.

In data set [1], `CCCC[C@H](NC(=O)C(C)(Cc1c(F)cccc1F)NC(=O)[C@H](CCC(N)=O)NC(=O)[C@@H](NC(=O)[C@H](CCC(=O)O)NC(=O)C(C)(C)NC(=O)[C@@H](NC(=O)C(C)(C)N)C(C)C)[C@@H](C)CC)C(=O)N[C@@H](Cc1c[nH]cn1)C(=O)N[C@@H](CCC(N)=O)C(=O)N[C@@H](CCCN)C(=O)NC(C)(C)C(=O)NC(C)(Cc1c(F)cccc1F)C(=O)NC(Cc1ccc(-c2ccc(OC)cc2CC)cc1)C(=O)N[C@@H](CCCc1ccccc1)C(N)=O` (stereo partly drawn) [Seq. ID. 840] (H-[Aib]V[Aib]EIQ[ξαMePhe(2,6-F2)][Nle]HQ[Orn][Aib][ξαMePhe(2,6-F2)][ξBip(2'-Et-4'-OMe)][hhPhe]-NH2) displayed a half-life of more than 1440 min and a metabolised at 24 h, 2 μM of 0%. For the same molecule, in data set [2], the “% degradation … with simulated gastric fluid” value is on record as 00% and the half-life is more than 1440 min. Besides, in data set [3], the half-life was more than 1440 min and the “% degradation … with simulated intestinal fluid” value was 00%. In data set [4], the “half-life (t1/2) in liver microsomes” value is reported as “(5) h” and the “% degradation … with liver microsomes” value came to 33%.

In data set [1], `CCCC[C@H](NC(=O)C(C)(Cc1c(F)cccc1F)NC(=O)[C@H](CCC(N)=O)NC(=O)[C@@H](NC(=O)[C@H](CCC(=O)O)NC(=O)C1(NC(=O)[C@@H](NC(=O)C2(N)CCCC2)C(C)C)CCCC1)[C@@H](C)CC)C(=O)N[C@@H](Cc1c[nH]cn1)C(=O)N[C@@H](CCC(N)=O)C(=O)N[C@@H](CCCCNC(=N)N)C(=O)N1CCCC1(C)C(=O)N[C@@H](CCCCN)C(=O)NC(C)(Cc1ccccc1)C(N)=O` (stereo partly drawn) [Seq. ID. 46] (H-[Ac5c]V[Ac5c]EIQ[ξαMePhe(2,6-F2)][Nle]HQ[hArg][ξαMeP]K[ξαMeF]-NH2) registered a half-life of more than 1440 min and a metabolised at 24 h, 2 μM of 0%. Further, in data set [2], the “% degradation … with simulated gastric fluid” value is reported as 00% and the half-life is more than 1440 min. In data set [3], the half-life is more than 1440 min and the “% degradation … with simulated intestinal fluid” value is given as 00%. Besides, in data set [4], the “half-life (t1/2) in liver microsomes” value is listed as “(5) h” and the “% degradation … with liver microsomes” value is on record as 31%.
